Measurements taken from patent US20070212707A1, “CELL CYCLE MARKERS” (GE HEALTHCARE UK LIMITED, priority 2004, published 2007).
“Also recorded” adds a separate entry of the source.

Tests used:
[1] = system: CRM1-mediated nuclear export; test: Nuclear export block: subcellular localization of GFP-HDHB and FLAG-HDHB with or without LMB; assay type: cell-based, human; conditions: asynchronous, G1 and S phase U2OS cells; 10 ng/ml LMB with 10 μM cycloheximide, 3 h
Method: In experiments to block nuclear protein export, cells were cultured for 3 h in DMEM containing 10 ng/ml of leptomycin B (LMB) (gift from Dr. M. Yoshida) and 10 μM cycloheximide (Calbiochem, San Diego, Calif.) to prevent new protein synthesis. Cells plated on glass coverslips were microinjected as described (Herbig et al., 1999) except that plasmid DNA rather than protein was injected.
To assess whether the putative NES in HDHB was functional, we mutated Val/Leu and Leu/Leu of the NES motif to alanine to create NES mutants 1 and 2 (FIG. 6A). GFP-HDHB and GFP-βGal-PSLD harboring these NES mutations were transiently expressed in either asynchronous or synchronized U2OS cells.

[2] = system: U2OS cells transiently expressing GFP-HDHB; test: DNA damage response assay: GFP-HDHB nuclear focus formation; assay type: cell-based, human; conditions: 20 μM etoposide, 10 μM camptothecin or 1 μM mitomycin C, 20 h, DMSO control, Triton X-100 extraction
Method: U2OS cells (80-90% confluent) were transfected with pGFP-HDHB according to the manufacturer's protocol (Lipofectamine 2000, Invitrogen). […] After 20 h, cells were extracted with Triton X-100 buffer and then fixed for immunofluorescence as described above. Distinctive GFP-HDHB nuclear foci were counted in more than 100 cells in each independent assay.
Moreover, DNA damage induces nuclear foci that are thought to contain damage-sensing and -processing proteins (Nelms et al., Science, (1998) 280, 590-592; van den Bosch et al. EMBO Rep., (2003), 4, 844-849).

Structure (SMILES)	subcellular localization of GFP-HDHB and FLAG-HDHB fusion proteins in the presence of LMB [1]	number of large GFP-HDHB nuclear foci per cell compared to the control [2]
CCC(=C/[C@H](C)C/C=C/C(C)=C/[C@@H](C)C(=O)[C@@H](C)[C@H](O)[C@@H](C)C/C(C)=C/C(=O)O)/C=C/[C@@H]1OC(=O)C=C[C@@H]1C [LMB, leptomycin B]	both fusion proteins accumulated in the nucleus independently of the cell cycle	–
CO[C@@]12[C@H](COC(N)=O)C3=C(C(=O)C(C)=C(N)C3=O)N1C[C@@H]1N[C@@H]12 [Mitomycin C, mitomycin C]	–	little effect
CC[C@@]1(O)C(=O)OCc2c1cc1n(c2=O)Cc2cc3ccccc3nc2-1 [camptothecin]	–	more than doubled; also recorded: induced many more HDHB nuclear foci
